Data published in patent US20230339970A1, “CASEIN KINASE 1 DELTA MODULATORS” (priority 2020, published 2023).

How the values were obtained:
human CSNK1D = biological target: T1, human CSNK1D (Homo sapiens, UniProt P48730); assay: Whole Cell nBRET CSNK1D Binding Assay; conditions: living CHO cells stably expressing human CSNK1D tagged with nanoluciferase; NanoBret tracer 130 nM; 2 hours at 37 C
T1 construct: expressed in transfected cells

[1] = biological target: T2, human recombinant GST cleaved CSNK1D (Homo sapiens, UniProt P48730); assay: Purified Enzyme Assay (ADP-Glo CSNK1D Kinase Assay); format: biochemical; conditions: 2 nM CSNK1D; peptide substrate 150 μM; ATP 20 μM; 45 minutes at room temperature
T2 construct: GST (cleaved yes); purchased University of Dundee clone DU 19064
T2 sequence (P48730 whole entry): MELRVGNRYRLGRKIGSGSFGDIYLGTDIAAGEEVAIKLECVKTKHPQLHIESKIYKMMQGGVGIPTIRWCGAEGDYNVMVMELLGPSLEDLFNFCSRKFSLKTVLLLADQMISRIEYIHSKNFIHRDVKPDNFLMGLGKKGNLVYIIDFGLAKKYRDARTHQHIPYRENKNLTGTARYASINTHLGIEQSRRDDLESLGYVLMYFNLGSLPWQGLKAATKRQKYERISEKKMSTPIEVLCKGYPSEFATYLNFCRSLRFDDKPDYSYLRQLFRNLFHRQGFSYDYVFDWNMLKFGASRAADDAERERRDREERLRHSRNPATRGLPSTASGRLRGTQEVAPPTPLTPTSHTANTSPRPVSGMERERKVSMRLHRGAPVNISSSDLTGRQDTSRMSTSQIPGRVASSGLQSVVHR
In short: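 GST-cleaved human recombinant CSNK1D phosphorylates peptide PLSRTL-pS-VASLPGL with ATP; compounds added in dose-response, 45 min at room temperature. ADP formed measured by ADP-Glo luminescence and converted to percent activity.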

T1 sequence (P48730 whole entry): as above

Row | Structure (SMILES) | IC50 (human CSNK1D) | IC50 [1]
1 | COCC1(F)CCc2c(-c3c(F)cnc4[nH]ncc34)c(-c3ccc(F)cn3)nn2C1 (single isomer, unassigned) [Example 302, (*S)-5-Fluoro-4-[6-fluoro-2-(5-fluoro-2-pyridyl)-6-(methoxymethyl)-5,7-dihydro-4H-pyrazolo[1,5-a]pyridin-3-yl]-1H-pyrazolo[3,4-b]pyridine] | 3.25 µM | 0.132 µM
2 | C[C@@H]1CCn2nc(-c3ccc(F)cn3)c(-c3ccnc4[nH]ncc34)c2O1 (single isomer, unassigned) [Example 199, (*R)-2-(5-Fluoro-2-pyridyl)-5-methyl-3-(1H-pyrazolo[3,4-b]pyridin-4-yl)-6,7-dihydro-5H-pyrazolo[5,1-b][1,3]oxazine] | 0.186 µM | 0.012 µM
3 | COc1ccc2nccc(-c3c(-c4ccc(F)cn4)nn4c3CC[C@@H]4C)c2n1 [Example 22, 8-[(6S)-2-(5-Fluoro-2-pyridyl)-6-methyl-5,6-dihydro-4H-pyrrolo[1,2-b]pyrazol-3-yl]-2-methoxy-1,5-naphthyridine] | 0.345 µM | 0.023 µM
4 | Cc1nc2[nH]ncc2c(-c2c(-c3ccc(F)cn3)nn3c2OC[C@H]2C[C@H]2C3)c1F (stereo in doubt) [Example 482, (5a*R,6a*S)-3-(5-Fluoro-6-methyl-1H-pyrazolo[3,4-b]pyridin-4-yl)-2-(5-fluoropyridin-2-yl)-5a,6,6a,7-tetrahydro-5H-cyclopropa[e]pyrazolo[5,1-b][1,3]oxazepine] | 0.079 µM | 0.008 µM
5 | Cc1nc(-c2c(-c3ccc(F)cn3)nn3c2CC[C@@H]2C[C@@H]23)c2cn[nH]c2n1 (relative stereo) [Example 347, (5a*R,6a*S)-2-(5-fluoropyridin-2-yl)-3-(6-methyl-1H-pyrazolo[3,4-d]pyrimidin-4-yl)-5,5a,6,6a-tetrahydro-4H-cyclopropa[e]pyrazolo[1,5-a]pyridine] | 0.573 µM | 0.035 µM
6 | Fc1ccc(-c2nn3c(c2-c2ccnc4[nH]ncc24)C[C@H]2C[C@H]23)nc1 [Example 25, (4aR,5aR)-2-(5-Fluoropyridin-2-yl)-3-(1H-pyrazolo[3,4-b]pyridin-4-yl)-4,4a,5,5a-tetrahydrocyclopropa[4,5]pyrrolo[1,2-b]pyrazole] | 0.672 µM | 0.049 µM
7 | Cc1cc(-c2c(-c3cncc(F)c3)nn3c2COCC3)c2cn[nH]c2n1 [Example 77, 2-(5-Fluoro-3-pyridyl)-3-(6-methyl-1H-pyrazolo[3,4-b]pyridin-4-yl)-6,7-dihydro-4H-pyrazolo[5,1-c][1,4]oxazine] | 2.33 µM | 0.116 µM

Now from value to compound:

Row | IC50 (human CSNK1D) | IC50 [1] | Structure (SMILES)
8 | 3.61 µM | 0.148 µM | CNC(=O)c1cc(-c2c(-c3ccc(F)cn3)nn3c2COC(C)(C(F)(F)F)C3)ccn1 (stereo not shown) [Example 175, 4-(2-(5-Fluoropyridin-2-yl)-6-methyl-6-(trifluoromethyl)-6,7-dihydro-4H-pyrazolo[5,1-c][1,4]oxazin-3-yl)-N-methylpicolinamide]
9 | 0.694 µM | 0.149 µM | C[C@]1(C(F)(F)F)Cn2nc(-c3ccc(F)cc3)c(-c3ccn4nccc4c3)c2CO1 (single isomer, unassigned) [Example 412, (*R)-2-(4-Fluorophenyl)-6-methyl-3-(pyrazolo[1,5-a]pyridin-5-yl)-6-(trifluoromethyl)-6,7-dihydro-4H-pyrazolo[5,1-c][1,4]oxazine]
10 | 0.018 µM | 0.002 µM | CC1(CF)CCc2c(-c3c(F)cnc4[nH]ncc34)c(-c3ccc(F)cn3)nn2C1 (single isomer, unassigned) [Example 293, (*S)-5-Fluoro-4-[6-(fluoromethyl)-2-(5-fluoro-2-pyridyl)-6-methyl-5,7-dihydro-4H-pyrazolo[1,5-a]pyridin-3-yl]-1H-pyrazolo[3,4-b]pyridine]
11 | 0.233 µM | 0.014 µM | Cc1cc(-c2c(-c3ccc(F)cc3)nn3c2COCC3(C)C)c2cn[nH]c2n1 [Example 121, 2-(4-Fluorophenyl)-7,7-dimethyl-3-(6-methyl-1H-pyrazolo[3,4-b]pyridin-4-yl)-4,6-dihydropyrazolo[5,1-c][1,4]oxazine]
